Test results: ChEMBL document CHEMBL1641403, “Scytonemides A and B, cyclic peptides with 20S proteasome inhibitory activity from the cultured cyanobacterium Scytonema hofmanii” (J Nat Prod, 2010)

Legend:
[1] = Chemical stability of the compound; format: physicochemical
HT-29 [2] = assay: Inhibition of 20S proteasome in human HT-29 cells at 6.7 uM by luminescence-based assay; format: cell-based
HT-29 [3] = assay: Cytotoxicity against human HT-29 cells; format: cell-based
HT-29 [4] = assay: Inhibition of 20S proteasome in human HT-29 cells; format: cell-based
[5] = Metabolic stability of the compound in human HT-29 cells; format: ADME, cell-based; details: read-out: Stability (converted)
[6] = Inhibition of human 20S proteasome

## CC[C@H](C)[C@H]1NC(=O)[C@@H](CCC(N)=O)NC(=O)CNC(=O)[C@H](Cc2ccc(O)cc2)/N=C/[C@H](CC(C)C)NC(=O)[C@H](C(C)C)NC(=O)[C@H](CO)NC1=O [SCYTONEMIDES A]
[1]
  Stability: 3 days
HT-29 [2]
  inhibition: 80%
HT-29 [3]
  Activity: Non-toxic
HT-29 [4]
  ED50: > 20 µg/mL
[5]
  half-life: 2 h

## CCCCC[C@H]1CC(=O)N[C@@H](CO)C(=O)N[C@@H](Cc2ccccc2)C(=O)N[C@@H](Cc2ccc(O)cc2)C(=O)N[C@H](CCCNC(N)=O)C(=O)N[C@@H](CC(=O)O)C(=O)O1 [scytonemides B]
[6]
  IC50: > 50 µM
